{
  "source": "paper PMC3454376",
  "about": "“Salidroside Improves Behavioral and Histological Outcomes and Reduces Apoptosis via PI3K/Akt Signaling after Experimental Traumatic Brain Injury” (PLoS ONE, 2012)",
  "format_in_all_cases": "in vivo, mice",
  "key": {"Body weight after CCI": {"experiment": "Body weight after CCI", "conditions": "P>0.05"}, "cytosolic Smac/DIABLO": {"tested_on": "cytosolic Smac/DIABLO", "experiment": "Western blot, cytosolic fraction of injured cortex", "conditions": "20 mg/kg ip 10 min after CCI, P<0.05", "protocol": "(§1) Three sets of experiments were performed. The first set was to investigate the protective effects of salidroside. All animals were randomized into 1 of 3 groups (sham injury, CCI + vehicle, CCI + SALD 20). Surgery/injury, behavioral testing, and tissue analyses were performed by different individuals. Behavioral testing and tissue analyses were performed by individuals blinded to the treatment group. Salidroside (Cayman Chemical, Ann Arbor, MI, USA) dissolved in normal saline (0.25 mL) or a corresponding volume of vehicle (saline) was administered intraperitoneally 10 min following injury. Testing after injury was completed as follows: 1) behavioral testing at days 1, 4, 7, 14, 21, and 28 (n = 8–10 mice/group); 2) cresyl violet staining at day 28 (n = 9 mice/group); 3) histology, determination of brain water content, and western blot analysis at day 1 or 3 (n = 5–6 mice/group). To determine the optimal dose of salidroside, a pilot study was performed using 2 different doses (20 and 50 mg/kg) administered 10 min after injury, and neurological deficits and tissue damage were evaluated as the main outcomes. […] The second set of experiment was to assess the effect of the inhibition of PI3K/Akt with the specific PI3K inhibitor, LY294002 (Cell Signaling Technology, Danvers, MA, USA), on salidroside effects. Animals were randomized into 4 groups. Mice received either: 1) icv pretreatment of LY294002 followed by SALD 20 after CCI (S20Y group); or 2) icv pretreatment of saline (vehicle control) followed by SALD 20 after CCI (S20V group). 3) Mice were infused icv with saline and were subjected to sham injury. 4) Mice were infused icv with LY294002 and were subjected to sham injury. Testing after injury was completed as follows: 1) cresyl violet staining at day 28 (n = 6 mice/group); 2) western blot analysis at day 1 (n = 6 mice/group). The third set of experiment was performed to examine the neuroprotective time window afforded by salidroside. Mice received intraperitoneal SALD 20 or vehicle (saline) at 3 or 6 h following CCI and were sacrificed 1 day later for FJB staining and western blot analysis (n = 6 mice/group). Brains of injured or sham animals were collected 1 day and 3 days post CCI or sham surgery, and a 4 mm coronal section from the injured area over the parietal cortex and ipsilateral hippocampus were collected. […] Protein concentration was determined by Bradford reagent spectrophotometrically at A595. […] The relative intensity of protein signals was normalized to the corresponding β-actin intensity and was quantified by densitometric analysis with the use of Image J software. […]"}, "cytosolic CytoC": {"tested_on": "cytosolic CytoC", "experiment": "Western blot, cytosolic fraction of injured cortex", "conditions": "20 mg/kg ip 10 min after CCI", "protocol": "as §1"}},
  "data": [
    {"smiles": "OC[C@H]1O[C@@H](OCCc2ccc(O)cc2)[C@H](O)[C@@H](O)[C@@H]1O", "note": "[SALD, salidroside]", "values": [
      {"measurement": "body weight versus vehicle", "setting": "Body weight after CCI; 20 mg/kg ip after CCI", "value": "No significant difference"},
      {"measurement": "body weight versus vehicle", "setting": "Body weight after CCI; 50 mg/kg ip after CCI", "value": "No significant difference"},
      {"measurement": "cytosolic Smac/DIABLO level compared to vehicle-treated injured brains", "setting": "cytosolic Smac/DIABLO; day 1", "value": 45.1, "unit": "%"},
      {"measurement": "cytosolic Smac/DIABLO level compared to vehicle-treated injured brains", "setting": "cytosolic Smac/DIABLO; day 3", "value": 58.1, "unit": "%"},
      {"measurement": "cytosolic CytoC level compared to vehicle-treated injured brains", "setting": "cytosolic CytoC; day 1, P<0.01", "value": 60.6, "unit": "%"},
      {"measurement": "cytosolic CytoC level compared to vehicle-treated injured brains", "setting": "cytosolic CytoC; day 3, P<0.05", "value": 54.7, "unit": "%"}
    ]}
  ]
}
